Read-outs that look alike come from different tables or passages of the source. One block for each molecule: values may come before it.
Experiments:
[1] = HPLC stability studies at physiological temperature and pH; type: physicochemical; conditions: 500 μM in 50 mM Tris pH 7.5, 1 mM DTT, 37° C.
Experimental: To validate the installation of an N-acetyl as a non-hydrolyzable substitution, the stabilities of both 2′- and 3′-NAADPr were evaluated at physiological temperature and pH using conditions previously described (Borra et al., 2002, J. Biol. Chem. 277: 12632-12641). […] HPLC analysis of both 2′- and 3′-NAADPr using exact conditions indicated negligable decomposition (<1%) over 3 days and confirmed the stability of the acetyl funcitonality to spontaneous hydrolysis at physiological pH.
Reactions were carried out with both analogs (final concentration of 500 μM) in 50 mM Tris (pH 7.5 at 37° C.) containing 1 mM DTT. Samples were incubated at 37° C. over 3 days and four time points were collected (0, 24, 48, and 72 h). Each sample was quenched with H2O containing 0.05% TFA and analyzed by HPLC (analytical C18) using the method described in general procedures. Each trace was integrated (Shimadzu EZStart version 7.2.1 SP1) to determine peak area and analog percentage is shown in the following table 1. Both 2′- and 3′-NAADPr contained trace impurities at 12.9 and 12.5 min respectively and contributed to the observed degradation products visible at 23.3 min in each study.

human macroH2A1.1 domain [2] = molecular target: T1, human macroH2A1.1 domain (Homo sapiens, UniProt O75367); test: MacroH2A1.1 binding (calorimetry); conditions: method similar to Kustatcher
Source text: (§1) MacroH2A1.1 is an atypical histone variant associated with heterochromatin and implicated in transcriptional repression. […] The splice-variant MacroH2A1.2 was also studied, but no binding of ADPr was observed. The binding of 2′- and 3′-NAADPr may be evaluated using a protocol similar to that described by Kustatcher.

NudT9 [3] = molecular target: T2, NudT9 (Homo sapiens, UniProt Q9BW91); test: Nudix hydrolase hydrolysis by NudT9 (Michaelis-Menten); type: biochemical; conditions: substrate 5-300 μM, NudT9 100 ng
T2 sequence (Q9BW91 47-350): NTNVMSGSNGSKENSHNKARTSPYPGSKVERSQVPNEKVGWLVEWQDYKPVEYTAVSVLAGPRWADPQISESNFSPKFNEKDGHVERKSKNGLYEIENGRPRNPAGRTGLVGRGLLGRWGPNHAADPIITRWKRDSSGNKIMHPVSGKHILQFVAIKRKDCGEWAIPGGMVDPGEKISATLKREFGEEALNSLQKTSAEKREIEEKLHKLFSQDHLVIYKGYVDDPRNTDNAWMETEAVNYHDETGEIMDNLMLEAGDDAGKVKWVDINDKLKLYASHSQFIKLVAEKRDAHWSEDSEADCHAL
Experimental: (§2) The Nudix hydrolases, mNudT5 and YSA1, and NudT9 are a family of ADPr metabolizing enzymes. […] Reaction mixtures containing ADPr (5-300 μM) were incubated with NudT9 (100 ng) or YSA1 (10 ng). Michaelis-Menten plots were generated for the hydrolysis of ADPr by NudT9 and YSA1. […] The hydrolysis of 2′- and 3′-NAADPr is evaluated using a protocol similar to that described by Rafty.

YSA1 [4] = molecular target: T3, YSA1 (Saccharomyces cerevisiae, UniProt Q01976); test: Nudix hydrolase hydrolysis by YSA1 (Michaelis-Menten); type: biochemical, yeast; conditions: substrate 5-300 μM, YSA1 10 ng
T3 sequence (Q01976 1-231): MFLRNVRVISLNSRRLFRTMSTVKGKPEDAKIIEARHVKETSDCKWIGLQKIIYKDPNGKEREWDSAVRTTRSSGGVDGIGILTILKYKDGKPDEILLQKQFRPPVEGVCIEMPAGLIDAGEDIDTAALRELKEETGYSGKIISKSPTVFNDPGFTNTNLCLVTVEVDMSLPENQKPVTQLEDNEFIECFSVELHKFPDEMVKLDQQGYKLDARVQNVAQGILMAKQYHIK
Experimental: as §2

[5] = molecular target: splice-variant MacroH2A1.2 (Homo sapiens, UniProt O75367); test: MacroH2A1.2 binding (calorimetry); conditions: method similar to Kustatcher
Source text: as §1

[6] = within 3 h, physiological temperature and pH (Borra et al., 2002); cited from earlier work
NudT9 [7] = molecular target: T2, NudT9; conditions: in vitro (Rafty et al., 2002); cited from earlier work
YSA1 [8] = molecular target: T3, YSA1; conditions: in vitro (Rafty et al., 2002); cited from earlier work
mNudT5 = mNudT5 (Mus musculus, UniProt Q9JKX6); conditions: in vitro (Rafty et al., 2002); cited from earlier work
human macroH2A1.1 domain [9] = molecular target: T1, human macroH2A1.1 domain; conditions: calorimetry, Kustatcher et al., 2005; cited from earlier work

T1 sequence (O75367 184-367 limits assumed): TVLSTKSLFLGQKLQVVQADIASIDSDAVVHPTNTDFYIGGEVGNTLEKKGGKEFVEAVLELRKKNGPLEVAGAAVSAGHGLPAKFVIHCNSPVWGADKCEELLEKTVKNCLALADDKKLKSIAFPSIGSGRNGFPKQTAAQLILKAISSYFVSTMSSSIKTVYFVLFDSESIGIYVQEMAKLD
Chain of splice-variant MacroH2A1.2 (O75367 1-372 isoform O75367-1): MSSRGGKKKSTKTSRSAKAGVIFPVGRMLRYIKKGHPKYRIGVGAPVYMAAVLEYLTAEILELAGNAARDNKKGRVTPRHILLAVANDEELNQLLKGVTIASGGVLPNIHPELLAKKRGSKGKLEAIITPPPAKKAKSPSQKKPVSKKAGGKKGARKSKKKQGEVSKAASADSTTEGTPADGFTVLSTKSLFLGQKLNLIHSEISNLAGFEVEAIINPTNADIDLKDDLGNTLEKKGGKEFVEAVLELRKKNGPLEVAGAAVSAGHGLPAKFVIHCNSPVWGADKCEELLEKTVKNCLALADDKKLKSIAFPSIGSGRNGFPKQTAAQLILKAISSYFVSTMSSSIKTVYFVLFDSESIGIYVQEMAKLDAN
Chain of mNudT5 (Q9JKX6 whole entry): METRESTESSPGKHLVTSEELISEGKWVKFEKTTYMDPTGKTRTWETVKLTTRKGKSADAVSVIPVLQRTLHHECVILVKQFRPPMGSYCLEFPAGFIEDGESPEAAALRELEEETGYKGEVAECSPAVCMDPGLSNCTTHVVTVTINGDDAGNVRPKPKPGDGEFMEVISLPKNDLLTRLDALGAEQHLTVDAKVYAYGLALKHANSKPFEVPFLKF

Molecule: 3′-N-Acetyl-ADP-ribose [3′-NAADPr]
analog percentage (HPLC peak area) ([1]; 0 h): 95.7% | analog percentage (HPLC peak area) ([1]; 24 h): 98.2% | analog percentage (HPLC peak area) ([1]; 48 h): 98.0% | analog percentage (HPLC peak area) ([1]; 72 h): 98.0%

analog percentage (HPLC peak area) ([1]; 0 h): 98.7% | analog percentage (HPLC peak area) ([1]; 24 h): 98.7% | analog percentage (HPLC peak area) ([1]; 48 h): 98.2% | analog percentage (HPLC peak area) ([1]; 72 h): 98.3%
Molecule: CC(=O)NC1C(O)O[C@H](COP(=O)(O)OP(=O)(O)OC[C@H]2O[C@@H](n3cnc4c(N)ncnc43)C(O)C2O)[C@@H]1O (stereo partly drawn) [2′-NAADPr, 2′-N-Acetyl-ADP-ribose]

Kd (human macroH2A1.1 domain [2]): 2400 nM | enthalpy (human macroH2A1.1 domain [2]): -15.4 kcal/mol | Km (NudT9 [3]): 23.9 µM | kcat (NudT9 [3]): 9.3 s⁻¹ | Km (YSA1 [4]): 39.9 µM | kcat (YSA1 [4]): 6.5 s⁻¹ | binding [5]: no binding
Molecule: Nc1ncnc2c1ncn2[C@@H]1O[C@H](COP(=O)(O)OP(=O)(O)OC[C@H]2OC(O)[C@H](O)[C@@H]2O)[C@@H](O)[C@H]1O (stereo partly drawn) [ADPr, ADP-ribose]

Molecule: O-Acetyl-ADP-ribose [OAADPr]
hydrolyzed to ADPr [6]: approximately 18% | hydrolysis efficiency, less efficient as compared to ADPr (NudT9 [7]): 500 fold | hydrolysis to AMP and acetylated ribose 5′-phosphate (YSA1 [8]): efficiently hydrolyze | hydrolysis to AMP and acetylated ribose 5′-phosphate (mNudT5): efficiently hydrolyze | Kd (human macroH2A1.1 domain [9]): ~2000 nM | enthalpy (human macroH2A1.1 domain [9]): -17.8 kcal/mol
